≈ marks a conversion by molar mass, not a printed value. Like-named read-outs stand apart in the source and are kept apart here.
How the values were obtained:
[1] = Solubility experiment in water; type: physicochemical; conditions: solid loading 2 mg/mL; for solubility at 1 h / solubility at 2 h / solubility at 4 h / solubility at 24 h: thermodynamic from solid, read-out: S: solubility
Procedure: Table 7 and Table 8 provide summaries of solubility experiment in water at 37° C. and 25° C., respectively.

[2] = DVS water uptake; type: physicochemical; conditions: 25° C./80% RH

SMILES	FC: solid form change ([1]; 25° C., 1 hr)	S: solubility ([1]; 25° C., 1 hr)	pH ([1]; 25° C., 1 hr)	FC: solid form change ([1]; 25° C., 2 hrs)	S: solubility ([1]; 25° C., 2 hrs)	pH ([1]; 25° C., 2 hrs)	FC: solid form change ([1]; 25° C., 4 hrs)	S: solubility ([1]; 25° C., 4 hrs)	pH ([1]; 25° C., 4 hrs)	FC: solid form change ([1]; 25° C., 24 hrs)	S: solubility ([1]; 25° C., 24 hrs)	pH ([1]; 25° C., 24 hrs)	FC: solid form change ([1]; 37° C., 1 hr)	pH ([1]; 37° C., 1 hr)	FC: solid form change ([1]; 37° C., 2 hrs)	pH ([1]; 37° C., 2 hrs)	FC: solid form change ([1]; 37° C., 4 hrs)	pH ([1]; 37° C., 4 hrs)	FC: solid form change ([1]; 37° C., 24 hrs)	pH ([1]; 37° C., 24 hrs)	also measured
C=CC(=O)N1CCC([C@@H]2CCNc3c(C(N)=O)c(-c4ccc(Oc5ccccc5)cc4)nn32)CC1 [Freebase Form A]	No	44 µg/mL	8.66	No	46 µg/mL	8.66	No	40 µg/mL	8.57	No	47 µg/mL	7.85	No	8.76	No	8.77	No	8.63	No	7.67	S: solubility ([1]; 37° C., 1 hr): 55 µg/mL; S: solubility ([1]; 37° C., 2 hrs): 57 µg/mL; S: solubility ([1]; 37° C., 4 hrs): 59 µg/mL; S: solubility ([1]; 37° C., 24 hrs): 56 µg/mL
C=CC(=O)N1CCC([C@@H]2CCNc3c(C(N)=O)c(-c4ccc(Oc5ccccc5)cc4)nn32)CC1 [Freebase Amorphous]	No	74 µg/mL	8.55	No	81 µg/mL	8.57	No	78 µg/mL	8.51	No	72 µg/mL	7.68	Gel	8.78	Gel	8.77	Gel	8.60	Gel	7.74	S: solubility ([1]; 37° C., 1 hr): 89 µg/mL; S: solubility ([1]; 37° C., 2 hrs): 89 µg/mL; S: solubility ([1]; 37° C., 4 hrs): 84 µg/mL; S: solubility ([1]; 37° C., 24 hrs): 78 µg/mL
C=CC(=O)N1CCC([C@@H]2CCNc3c(C(N)=O)c(-c4ccc(Oc5ccccc5)cc4)nn32)CC1 [Form 1]	No		3.36	No		3.09	No		3.01	No		2.76	Gel	3.22	Gel	2.97	Gel	3.01	Gel	2.74	solubility at 1 h ([1]; 25 °C, 25° C., 1 hr): 75 µg/mL (≈ 159 µM); solubility at 2 h ([1]; 25 °C, 25° C., 2 hrs): 78 µg/mL (≈ 165 µM); solubility at 4 h ([1]; 25 °C, 25° C., 4 hrs): 77 µg/mL (≈ 163 µM); solubility at 24 h ([1]; 25 °C, 25° C., 24 hrs): 75 µg/mL (≈ 159 µM); solubility at 1 h ([1]; 37 °C, 37° C., 1 hr): 90 µg/mL (≈ 191 µM); solubility at 2 h ([1]; 37 °C, 37° C., 2 hrs): 88 µg/mL (≈ 187 µM); solubility at 4 h ([1]; 37 °C, 37° C., 4 hrs): 73 µg/mL (≈ 155 µM); solubility at 24 h ([1]; 37 °C, 37° C., 24 hrs): 82 µg/mL (≈ 174 µM); hygroscopicity [2]: non hygroscopic; water uptake [2]: lower than 0.2%
